Legend:
HOP-62 = assay: NCI60 antiproliferative screen, lung HOP-62; type: cell-based, human; conditions: Homo sapiens; HOP-62, 48 h, sulforhodamine B; read-out: Cytotoxicity (GI50) lung HOP-62
Description: (§1) All of the indenoisoquinolines were tested for antiproliferative activity in the National Cancer Institute's 60 cell line screen (NCI60). The cells were incubated with the tested compounds at 100, 10, 1, 0.1, and 0.01 μM concentrations for 48 h before treatment with sulforhodamine B dye. Optical densities were recorded, and their ratios relative to that of the control were plotted as percentage growth against the log 10 of the tested compound concentrations. The concentration that corresponds to 50% growth inhibition (GI50) is calculated by interpolation between the points located above and below the 50% percentage growth. The mean-graph midpoint (MGM) is an estimated average of the GI50 values derived from the NCI collection of 60 human cancer cell lines, where during the MGM calculation, anticancer agents with GI50 values that are outside the testing range of 0.01-100 μM are arbitrarily assigned the values of 0.01 and 100 μM, respectively. […] Also, the GI50 values of many of the substances vs. individual human cancer cell lines are below the lowest concentration used (0.01 μM) in the standard NCI testing protocol. […] For example, the MGM cytotoxicity values of 9, 15-17, and 19 are all very close to each other, but the Top1 inhibitory activities range from +++(+) to 0.

HCT-116 = assay: NCI60 antiproliferative screen, colon HCT-116; type: cell-based, human; conditions: Homo sapiens; HCT-116, 48 h, sulforhodamine B; read-out: Cytotoxicity (GI50) Colon HCT-116
Description: as §1

SF-539 = assay: NCI60 antiproliferative screen, CNS SF-539; type: cell-based, human; conditions: Homo sapiens; SF-539, 48 h, sulforhodamine B; read-out: Cytotoxicity (GI50) CNS SF-539
Description: as §1

UACC-62 = assay: NCI60 antiproliferative screen, melanoma UACC-62; type: cell-based, human; conditions: Homo sapiens; UACC-62, 48 h, sulforhodamine B; read-out: Cytotoxicity (GI50) melanoma UACC-62
Description: as §1

OVCAR-3 = assay: NCI60 antiproliferative screen, ovarian OVCAR-3; type: cell-based, human; conditions: Homo sapiens; OVCAR-3, 48 h, sulforhodamine B; read-out: Cytotoxicity (GI50) Ovarian OVCAR-3
Description: as §1

SN12C = assay: NCI60 antiproliferative screen, renal SN12C; type: cell-based, human; conditions: Homo sapiens, 48 h, sulforhodamine B, read-out: Cytotoxicity (GI50) renal SN12C
Description: as §1

DU-145 = assay: NCI60 antiproliferative screen, prostate DU-145; type: cell-based, human; conditions: Homo sapiens; DU-145, 48 h, sulforhodamine B; read-out: Cytotoxicity (GI50) prostate DU-145
Description: as §1

MCF-7 = assay: NCI60 antiproliferative screen, breast MCF-7; type: cell-based, human; conditions: Homo sapiens, MCF7; MCF-7, 48 h, sulforhodamine B; read-out: Cytotoxicity (GI50) breast MCF-7
Description: as §1

[1] = test system: all human cancer cell lines successfully tested (NCI60); assay: NCI60 mean graph midpoint for growth inhibition; type: cell-based
Description: as §1

Human recombinant Top1 = target: T1, Human recombinant Top1 (Homo sapiens, UniProt P11387); assay: Top1-mediated DNA cleavage assay; type: biochemical; parameters: key to Top1 inhibitory activity (level): 0, no detectable activity; +, weak activity; ++, similar activity to compound 4; +++, greater activity than 4; ++++, equipotent with 1; ++(+) would be between ++ and +++
T1 construct: made in house
T1 sequence (P11387 1-765): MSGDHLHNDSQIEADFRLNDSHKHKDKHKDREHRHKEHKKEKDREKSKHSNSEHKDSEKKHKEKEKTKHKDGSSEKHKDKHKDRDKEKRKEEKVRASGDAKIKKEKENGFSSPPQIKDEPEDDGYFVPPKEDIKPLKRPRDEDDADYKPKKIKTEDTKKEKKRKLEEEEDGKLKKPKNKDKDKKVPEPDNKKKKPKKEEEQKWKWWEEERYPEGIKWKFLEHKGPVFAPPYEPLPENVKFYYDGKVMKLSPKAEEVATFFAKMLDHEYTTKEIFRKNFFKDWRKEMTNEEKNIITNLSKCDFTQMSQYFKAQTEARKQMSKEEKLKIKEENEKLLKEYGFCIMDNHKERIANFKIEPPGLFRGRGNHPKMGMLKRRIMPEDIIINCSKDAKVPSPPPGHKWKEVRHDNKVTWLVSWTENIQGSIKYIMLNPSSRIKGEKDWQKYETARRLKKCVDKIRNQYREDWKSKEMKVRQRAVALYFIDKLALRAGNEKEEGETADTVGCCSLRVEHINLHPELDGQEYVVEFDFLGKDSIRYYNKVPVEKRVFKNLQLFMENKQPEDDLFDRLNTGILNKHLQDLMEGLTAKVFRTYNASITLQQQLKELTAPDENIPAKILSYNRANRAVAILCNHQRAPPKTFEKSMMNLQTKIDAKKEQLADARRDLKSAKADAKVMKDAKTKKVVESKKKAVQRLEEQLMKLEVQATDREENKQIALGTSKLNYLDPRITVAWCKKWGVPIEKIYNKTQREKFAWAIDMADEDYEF
Description: All of the new indenoisoquinoline derivatives were tested in Top1-mediated DNA cleavage assays. For this purpose, a ^32P 3′-end labeled 117-bp DNA fragment was incubated with Top1 at four concentrations of a tested compound. The DNA fragments were separated on 20% PAGE denaturing gels. The Top1 inhibitory activities were assigned on the basis of the visual inspection of the number and intensities of the gel bands corresponding to Top1-mediated DNA cleavage fragments and scored relative to the Top1 inhibitory activity of compounds 1 and 4. Results are expressed in semiquantitative fashion: 0, no detectable activity; +, weak activity; ++, similar activity to compound 4; +++, greater activity than 4; ++++, equipotent with 1. Ambiguous scores (e.g., between two values) are designated with parentheses (e.g., ++(+) would be between ++ and +++). […] After conversion of the hydroxyl to a dimethylcarbamate, the observed Top1 inhibitory activity increased from ++(+) for compound 8 to +++ for compound 10. Introduction of an acetyl group at the 0-2 position yielded compound 11, which was also a Top1 poison with activity at the ++ level. Subsequently, several hydrophobic substituents were attached to the 0-2 position.
Topoisomerase I-Mediated DNA Cleavage Reactions.
Human recombinant Top1 was purified from baculovirus as previously described (Morrell, A., et al., J. Med. Chem. 2007, 50, 2040-2048). DNA cleavage reactions were prepared as previously reported with the exception of the DNA substrate (Strumberg, D., et al., J. Med. Chem. 1999, 42, 446-457). Briefly, a 117-bp DNA oligonucleotide (Integrated DNA Technologies) encompassing the previously identified Top1 cleavage sites in the 161-bp fragment from pBluescript SK(−) phagemid DNA was employed. This 117-bp oligonucleotide contains a single 5′-cytosine overhang, which was 3′-end-labeled by fill-in reaction with [α-^32P]dGTP in React 2 buffer (50 mM Tris-HCl, pH 8.0, […], 50 mM NaCl) with 0.5 unit of DNA polymerase I (Klenow fragment, New England BioLabs). Unincorporated [^32P]dGTP was removed using mini Quick Spin DNA columns (Roche, Indianapolis, Ind.), and the eluate containing the 3′-end-labeled DNA substrate was collected. Approximately 2 nM radiolabeled DNA substrate was incubated with recombinant Top1 in 20 μL of reaction buffer [10 mM Tris-HCl (pH 7.5), 50 mM KCl, 5 mM MgCl2, 0.1 mM EDTA, and 15 μg/mL BSA] at 25° C. for 20 min in the presence of various concentrations of compounds. The reactions were terminated by adding SDS (0.5% final concentration) followed by the addition of two volumes of loading dye (80% formamide, 10 mM sodium hydroxide, 1 mM sodium EDTA, 0.1% xylene cyanol, and 0.1% bromophenol blue). Aliquots of each reaction mixture were subjected to 20% denaturing PAGE. Gels were dried and visualized by using a phosphoimager and ImageQuant software (Molecular Dynamics). For simplicity, cleavage sites were numbered as previously described in the 161-bp fragment.

## COc1cc2c(=O)n(CCCN3CCOCC3)c3c(c2cc1OC(=O)N(C)C)C(=O)c1cc2c(cc1-3)OCO2 [Compound 10, 3-Methoxy-6-(3-morpholinopropyl)-5,12-dioxo-6,12-dihydro-5H-[1,3]dioxolo[4′,5′:5,6]indeno[1,2-c]isoquinolin-2-yl Dimethylcarbamate]
HOP-62
  GI50: 1700 nM
HCT-116
  GI50: 6070 nM
SF-539
  GI50: 1860 nM
UACC-62
  GI50: 4470 nM
OVCAR-3
  GI50: 12000 nM
SN12C
  GI50: 2400 nM
DU-145
  GI50: 1550 nM
MCF-7
  GI50: 22 nM
[1]; NCI60
  GI50's against various cell lines (range in words): micromolar range
[1]; all human cancer cell lines successfully tested, ± standard error, read-out: MGM (mean graph midpoint for growth inhibition)
  mean GI50 across NCI60 cell lines (MGM): 3460 ± 999 nM
Human recombinant Top1
  Top1 inhibitory activity (in words): slight improvement in Top1 inhibitory activity
Human recombinant Top1; graded relative to 1 μM camptothecin
  Top 1 Cleavage: +++ (+++, between 75 and 95% activity)
Human recombinant Top1; scored relative to compounds 1 and 4
  Top1 inhibitory activity (level): +++
other
  melting point: 268 to 270 °C (dec.)
